Measurements taken from ChEMBL document CHEMBL5465560, “Selectivity Literature for EUbOPEN Chemogenomic Library” (2024).
One block for each compound: values may come before it.

Key:
[1] = target: Phosphatidylinositol 4,5-bisphosphate 3-kinase catalytic subunit beta isoform (Homo sapiens) (UniProt P42338); experiment: Selectivity interaction (KinomeScan (DiscoverX)) EUB0001049a PIK3CB; details: at 1 µM
[2] = target: Dual specificity mitogen-activated protein kinase kinase 2 (Homo sapiens) (UniProt P36507); experiment: Selectivity interaction (KinomeScan (DiscoverX)) EUB0001550a MAP2K2; details: at 1 µM
[3] = target: T1, Serine/threonine-protein kinase BRSK2 (Homo sapiens) (UniProt Q8IWQ3); experiment: Selectivity interaction (KinomeScan (DiscoverX)) EUB0000092b BRSK2; details: at 10 µM
T1 sequence (whole entry): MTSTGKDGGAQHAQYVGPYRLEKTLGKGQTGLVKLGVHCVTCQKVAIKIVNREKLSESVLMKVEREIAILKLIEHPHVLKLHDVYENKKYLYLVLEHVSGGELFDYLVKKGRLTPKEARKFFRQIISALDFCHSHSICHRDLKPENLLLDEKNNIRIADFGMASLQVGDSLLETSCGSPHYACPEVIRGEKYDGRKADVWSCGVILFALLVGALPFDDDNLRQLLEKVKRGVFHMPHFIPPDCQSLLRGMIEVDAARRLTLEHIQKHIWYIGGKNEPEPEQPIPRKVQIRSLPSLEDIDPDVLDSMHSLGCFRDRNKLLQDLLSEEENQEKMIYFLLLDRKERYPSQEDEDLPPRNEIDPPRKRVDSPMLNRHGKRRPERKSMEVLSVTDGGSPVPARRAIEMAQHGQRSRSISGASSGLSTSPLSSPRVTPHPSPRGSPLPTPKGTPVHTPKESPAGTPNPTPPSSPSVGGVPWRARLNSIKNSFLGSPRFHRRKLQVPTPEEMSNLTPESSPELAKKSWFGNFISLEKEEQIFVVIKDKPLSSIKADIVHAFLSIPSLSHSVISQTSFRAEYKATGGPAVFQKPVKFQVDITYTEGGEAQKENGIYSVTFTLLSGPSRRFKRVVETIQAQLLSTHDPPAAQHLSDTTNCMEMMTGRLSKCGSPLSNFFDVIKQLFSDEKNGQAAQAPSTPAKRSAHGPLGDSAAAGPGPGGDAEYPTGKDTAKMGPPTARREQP

[4] = target: Serine/threonine-protein kinase 35 (Homo sapiens) (UniProt Q8TDR2); experiment: Selectivity interaction (KinomeScan (DiscoverX)) EUB0000655a STK35; details: at 10 µM
[5] = target: T2, Phosphatidylinositol 3-kinase C2 domain-containing subunit gamma (Homo sapiens) (UniProt O75747); experiment: Selectivity interaction (KinomeScan (DiscoverX)) EUB0000618a PIK3C2G; details: at 10 µM
T2 sequence (whole entry): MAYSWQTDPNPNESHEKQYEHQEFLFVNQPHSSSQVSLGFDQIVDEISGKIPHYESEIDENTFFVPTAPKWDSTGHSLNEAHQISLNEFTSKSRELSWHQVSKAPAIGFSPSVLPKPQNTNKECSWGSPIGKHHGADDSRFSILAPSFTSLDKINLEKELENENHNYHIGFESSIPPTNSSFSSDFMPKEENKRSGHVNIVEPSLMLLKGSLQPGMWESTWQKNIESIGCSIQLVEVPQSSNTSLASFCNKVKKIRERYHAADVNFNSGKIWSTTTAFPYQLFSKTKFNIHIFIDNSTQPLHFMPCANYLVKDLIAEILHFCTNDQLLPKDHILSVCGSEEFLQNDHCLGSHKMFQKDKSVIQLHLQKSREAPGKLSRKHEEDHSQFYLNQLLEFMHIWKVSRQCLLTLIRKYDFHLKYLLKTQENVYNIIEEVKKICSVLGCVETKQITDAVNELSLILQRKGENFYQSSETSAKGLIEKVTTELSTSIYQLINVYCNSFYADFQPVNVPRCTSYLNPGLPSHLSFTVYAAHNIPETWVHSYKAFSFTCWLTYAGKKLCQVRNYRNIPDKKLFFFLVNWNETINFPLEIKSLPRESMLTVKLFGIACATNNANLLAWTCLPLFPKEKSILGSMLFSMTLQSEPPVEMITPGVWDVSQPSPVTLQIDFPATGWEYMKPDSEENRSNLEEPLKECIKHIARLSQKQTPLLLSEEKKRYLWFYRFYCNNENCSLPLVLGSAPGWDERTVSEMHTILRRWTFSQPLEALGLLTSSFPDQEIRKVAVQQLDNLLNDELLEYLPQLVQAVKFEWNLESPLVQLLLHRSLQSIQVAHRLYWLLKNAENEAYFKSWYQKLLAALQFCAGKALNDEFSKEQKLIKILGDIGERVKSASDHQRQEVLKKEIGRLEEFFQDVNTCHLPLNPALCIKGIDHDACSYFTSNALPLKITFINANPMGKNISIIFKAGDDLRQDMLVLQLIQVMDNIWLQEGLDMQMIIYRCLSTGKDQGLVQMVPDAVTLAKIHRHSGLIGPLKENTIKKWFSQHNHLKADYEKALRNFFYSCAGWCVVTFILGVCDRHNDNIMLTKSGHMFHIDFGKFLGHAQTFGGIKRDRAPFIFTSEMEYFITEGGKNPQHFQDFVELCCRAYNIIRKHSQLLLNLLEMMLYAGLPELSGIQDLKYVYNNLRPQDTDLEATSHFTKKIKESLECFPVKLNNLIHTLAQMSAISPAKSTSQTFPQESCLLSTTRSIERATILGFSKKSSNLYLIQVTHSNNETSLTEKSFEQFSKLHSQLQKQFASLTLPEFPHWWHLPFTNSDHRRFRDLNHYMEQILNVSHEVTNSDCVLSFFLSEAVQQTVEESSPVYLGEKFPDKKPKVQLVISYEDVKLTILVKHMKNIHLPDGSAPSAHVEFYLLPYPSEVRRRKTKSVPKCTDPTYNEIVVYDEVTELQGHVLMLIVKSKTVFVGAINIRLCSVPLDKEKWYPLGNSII

Chain of Dual specificity mitogen-activated protein kinase kinase 2 (Homo sapiens) (P36507 whole entry): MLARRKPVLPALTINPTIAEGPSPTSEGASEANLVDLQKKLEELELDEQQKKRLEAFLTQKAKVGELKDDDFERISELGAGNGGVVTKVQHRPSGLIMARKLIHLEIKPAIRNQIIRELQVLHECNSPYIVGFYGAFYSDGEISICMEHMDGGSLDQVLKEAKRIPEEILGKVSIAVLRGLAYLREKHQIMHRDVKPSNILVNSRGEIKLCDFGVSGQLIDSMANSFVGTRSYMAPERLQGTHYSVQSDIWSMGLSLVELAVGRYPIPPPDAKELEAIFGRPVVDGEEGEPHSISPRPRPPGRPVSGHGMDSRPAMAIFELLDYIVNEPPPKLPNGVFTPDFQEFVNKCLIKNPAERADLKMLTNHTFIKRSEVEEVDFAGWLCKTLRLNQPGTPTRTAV
Chain of Serine/threonine-protein kinase 35 (Homo sapiens) (Q8TDR2 whole entry, the tested form may be a part): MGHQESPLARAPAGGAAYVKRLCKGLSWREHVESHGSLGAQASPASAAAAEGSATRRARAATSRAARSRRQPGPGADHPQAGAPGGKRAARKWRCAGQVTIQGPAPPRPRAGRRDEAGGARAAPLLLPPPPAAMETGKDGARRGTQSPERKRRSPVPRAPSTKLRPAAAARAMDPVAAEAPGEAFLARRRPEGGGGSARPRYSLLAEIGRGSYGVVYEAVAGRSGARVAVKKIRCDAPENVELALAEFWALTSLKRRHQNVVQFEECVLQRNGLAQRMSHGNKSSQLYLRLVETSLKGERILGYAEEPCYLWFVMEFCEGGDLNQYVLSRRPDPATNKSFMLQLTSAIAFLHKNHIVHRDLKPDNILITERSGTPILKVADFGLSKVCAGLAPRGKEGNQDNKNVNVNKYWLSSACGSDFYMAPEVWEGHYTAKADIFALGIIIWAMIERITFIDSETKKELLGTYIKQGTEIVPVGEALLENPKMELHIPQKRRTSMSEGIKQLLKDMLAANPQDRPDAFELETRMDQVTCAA
Chain of Phosphatidylinositol 4,5-bisphosphate 3-kinase catalytic subunit beta isoform (Homo sapiens) (P42338 whole entry, looked up, canonical isoform): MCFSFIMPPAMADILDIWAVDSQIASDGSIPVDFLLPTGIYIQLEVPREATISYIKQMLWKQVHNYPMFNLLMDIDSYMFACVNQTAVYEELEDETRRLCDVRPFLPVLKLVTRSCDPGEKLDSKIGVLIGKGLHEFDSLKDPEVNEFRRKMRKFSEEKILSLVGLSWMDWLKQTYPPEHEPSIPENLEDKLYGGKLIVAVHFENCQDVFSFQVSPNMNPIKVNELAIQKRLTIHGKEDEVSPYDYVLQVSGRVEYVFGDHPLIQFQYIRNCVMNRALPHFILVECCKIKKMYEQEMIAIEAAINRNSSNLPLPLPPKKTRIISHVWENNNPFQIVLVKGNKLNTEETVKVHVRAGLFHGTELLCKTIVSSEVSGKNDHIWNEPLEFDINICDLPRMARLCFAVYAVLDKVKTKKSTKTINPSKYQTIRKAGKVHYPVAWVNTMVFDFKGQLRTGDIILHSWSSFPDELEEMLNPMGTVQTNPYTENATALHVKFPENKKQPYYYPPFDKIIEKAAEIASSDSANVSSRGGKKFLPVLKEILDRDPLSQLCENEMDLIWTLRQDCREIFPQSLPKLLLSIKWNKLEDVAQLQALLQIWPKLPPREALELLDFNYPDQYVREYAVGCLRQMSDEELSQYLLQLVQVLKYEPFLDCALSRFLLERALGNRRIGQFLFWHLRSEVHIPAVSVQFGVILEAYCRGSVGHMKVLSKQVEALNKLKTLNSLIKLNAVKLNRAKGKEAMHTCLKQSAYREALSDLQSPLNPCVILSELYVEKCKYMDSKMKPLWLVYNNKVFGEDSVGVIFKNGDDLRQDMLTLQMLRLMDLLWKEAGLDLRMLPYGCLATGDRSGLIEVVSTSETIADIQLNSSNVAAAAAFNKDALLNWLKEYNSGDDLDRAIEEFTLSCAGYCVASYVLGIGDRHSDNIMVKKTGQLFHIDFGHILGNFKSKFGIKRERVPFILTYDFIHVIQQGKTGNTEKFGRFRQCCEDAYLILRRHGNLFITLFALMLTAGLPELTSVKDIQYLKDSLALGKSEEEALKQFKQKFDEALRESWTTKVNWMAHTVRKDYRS

Compound: COc1cc(Nc2nc(C)cc(-c3cnn4nc(OC)ccc34)n2)cc(C(F)(F)F)c1
% of control [1]: 55%

% of control [2]: 9.6%
Compound: CN(C)CC#Cc1ccc2[nH]c3c(c2c1)-c1nc(N)ncc1CCC3

Compound: CCC(=O)N1CCN(c2ccc(-n3c(=O)ccc4cnc5ccc(-c6cnc7ccccc7c6)cc5c43)cc2C(F)(F)F)CC1
% of control [3]: 76%

Compound: CN(C)CCOc1ccc(-c2nc(-c3ccncc3)c(-c3ccc4c(c3)CC/C4=N\O)[nH]2)cc1
% of control [4]: 100%

Compound: O[C@H]1CC[C@H](Nc2ncc3nc(Nc4c(F)cc(F)cc4F)n([C@H]4CCOC4)c3n2)CC1
% of control [5]: 93%
